Results: ChEMBL document CHEMBL1137871, “Discovery of orally active prostaglandin D2 receptor antagonists” (Bioorg Med Chem Lett, 2004)

Experiments:
[1] = biological target: Prostaglandin E2 receptor EP2 subtype (Mus musculus, UniProt Q62053); assay: Ability to inhibit the binding of [3H]-PGD-2 radioligand to membranes of CHO cells stably expressing mouse Prostaglandin E receptor EP2; type: cell membranes
[2] = biological target: T1, Prostaglandin E2 receptor EP1 subtype (Mus musculus, UniProt P35375); assay: Ability to inhibit the binding of [3H]PGD-2 radioligand to membranes of CHO cells stably expressing mouse Prostaglandin E receptor EP1; type: cell membranes
T1 sequence (P35375 whole entry): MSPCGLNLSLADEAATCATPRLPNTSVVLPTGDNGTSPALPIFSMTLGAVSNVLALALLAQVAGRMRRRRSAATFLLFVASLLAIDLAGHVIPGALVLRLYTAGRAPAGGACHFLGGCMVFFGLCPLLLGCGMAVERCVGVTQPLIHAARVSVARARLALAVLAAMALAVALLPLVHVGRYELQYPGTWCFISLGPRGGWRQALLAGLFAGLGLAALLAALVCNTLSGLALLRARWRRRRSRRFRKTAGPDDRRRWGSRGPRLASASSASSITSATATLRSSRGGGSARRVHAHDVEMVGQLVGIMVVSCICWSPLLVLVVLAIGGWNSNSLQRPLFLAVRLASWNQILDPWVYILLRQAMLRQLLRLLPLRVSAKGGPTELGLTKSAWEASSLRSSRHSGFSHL

[3] = biological target: Prostaglandin E2 receptor EP4 subtype (Mus musculus, UniProt P32240); assay: Ability to inhibit the binding of [3H]PGD-2 radioligand to membranes of CHO cells stably expressing mouse Prostaglandin E receptor EP4; type: cell membranes
[4] = biological target: T2, Prostaglandin E2 receptor EP3 subtype (Mus musculus, UniProt P30557); assay: Ability to inhibit the binding of [3H]PGD-2 radioligand to membranes of CHO cells stably expressing mouse Prostaglandin E receptor EP3; type: cell membranes
T2 sequence (P30557 whole entry): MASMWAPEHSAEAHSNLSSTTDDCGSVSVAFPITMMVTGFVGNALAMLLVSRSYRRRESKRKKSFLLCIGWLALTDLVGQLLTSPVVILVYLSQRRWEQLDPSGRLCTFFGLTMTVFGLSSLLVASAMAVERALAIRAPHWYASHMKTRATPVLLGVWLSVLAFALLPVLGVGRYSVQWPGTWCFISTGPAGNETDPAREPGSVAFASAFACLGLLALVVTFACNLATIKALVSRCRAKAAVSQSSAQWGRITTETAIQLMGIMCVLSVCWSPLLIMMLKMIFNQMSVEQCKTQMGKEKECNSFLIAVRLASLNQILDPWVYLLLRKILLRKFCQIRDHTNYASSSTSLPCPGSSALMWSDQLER

[5] = biological target: T3, Prostaglandin D2 receptor (Mus musculus, UniProt P70263); assay: Ability to inhibit the binding of [3H]PGD-2 radioligand to membranes of CHO cells stably expressing mouse Prostaglandin D2 receptor; type: cell membranes
T3 sequence (P70263 whole entry): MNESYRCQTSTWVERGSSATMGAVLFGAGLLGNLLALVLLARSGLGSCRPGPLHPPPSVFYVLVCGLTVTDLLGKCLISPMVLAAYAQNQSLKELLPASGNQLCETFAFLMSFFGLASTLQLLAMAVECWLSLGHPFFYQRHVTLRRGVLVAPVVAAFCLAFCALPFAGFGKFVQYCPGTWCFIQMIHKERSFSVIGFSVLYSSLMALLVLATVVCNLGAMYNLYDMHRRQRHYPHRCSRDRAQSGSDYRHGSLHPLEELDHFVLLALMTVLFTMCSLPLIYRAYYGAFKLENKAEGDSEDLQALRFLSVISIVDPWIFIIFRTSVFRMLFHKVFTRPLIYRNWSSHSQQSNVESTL

[6] = biological target: T4, Prostaglandin D2 receptor (Homo sapiens, UniProt Q13258); assay: Ability to inhibit the binding of [3H]PGD-2 radioligand to membranes of CHO cells stably expressing human Prostaglandin D2 receptor; type: cell membranes
T4 sequence (Q13258 whole entry): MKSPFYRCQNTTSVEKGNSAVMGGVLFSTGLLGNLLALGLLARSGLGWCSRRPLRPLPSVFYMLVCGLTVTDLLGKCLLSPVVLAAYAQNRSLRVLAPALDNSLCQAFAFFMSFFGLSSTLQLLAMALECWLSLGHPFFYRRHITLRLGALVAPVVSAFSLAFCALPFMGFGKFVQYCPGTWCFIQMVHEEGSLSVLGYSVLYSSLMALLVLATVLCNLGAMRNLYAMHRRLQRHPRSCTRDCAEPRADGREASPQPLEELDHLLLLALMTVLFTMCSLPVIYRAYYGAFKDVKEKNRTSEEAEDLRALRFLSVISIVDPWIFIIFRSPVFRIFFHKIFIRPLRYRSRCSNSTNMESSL

[7] = biological target: T4, Prostaglandin D2 receptor; assay: Effect on the increase in cAMP formation induced by PGD-2 in the presence of bovine serum albumin in CHO cells expressing human Prostaglandin D2 receptor; type: functional, cell-based
[8] = biological target: T3, Prostaglandin D2 receptor; assay: Effect on the increase in cAMP formation induced by PGD-2 in the presence of bovine serum albumin in CHO cells expressing mouse Prostaglandin D2 receptor; type: functional, cell-based
[9] = system: Cavia porcellus; assay: inhibitory effect of compound on PGD-2 (0.01%, 20 uL/eye) induced vascular permeability in guinea pig conjunctiva at an oral dose of 0.3 mg/kg

Sequence of Prostaglandin E2 receptor EP4 subtype (P32240 whole entry): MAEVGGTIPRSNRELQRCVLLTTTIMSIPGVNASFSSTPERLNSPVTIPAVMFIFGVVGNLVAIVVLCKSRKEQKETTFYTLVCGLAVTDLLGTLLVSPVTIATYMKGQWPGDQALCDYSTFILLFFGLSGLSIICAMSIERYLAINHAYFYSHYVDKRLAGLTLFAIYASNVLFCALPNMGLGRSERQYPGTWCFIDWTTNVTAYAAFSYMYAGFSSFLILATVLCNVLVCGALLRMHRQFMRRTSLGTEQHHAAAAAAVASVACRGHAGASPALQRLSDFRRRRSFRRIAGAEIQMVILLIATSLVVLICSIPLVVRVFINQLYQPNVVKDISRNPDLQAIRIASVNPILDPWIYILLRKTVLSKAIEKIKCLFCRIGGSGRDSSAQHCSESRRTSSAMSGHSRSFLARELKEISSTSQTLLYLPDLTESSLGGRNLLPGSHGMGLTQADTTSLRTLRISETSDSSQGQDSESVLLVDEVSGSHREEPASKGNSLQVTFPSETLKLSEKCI
Sequence of Prostaglandin E2 receptor EP2 subtype (Q62053 whole entry): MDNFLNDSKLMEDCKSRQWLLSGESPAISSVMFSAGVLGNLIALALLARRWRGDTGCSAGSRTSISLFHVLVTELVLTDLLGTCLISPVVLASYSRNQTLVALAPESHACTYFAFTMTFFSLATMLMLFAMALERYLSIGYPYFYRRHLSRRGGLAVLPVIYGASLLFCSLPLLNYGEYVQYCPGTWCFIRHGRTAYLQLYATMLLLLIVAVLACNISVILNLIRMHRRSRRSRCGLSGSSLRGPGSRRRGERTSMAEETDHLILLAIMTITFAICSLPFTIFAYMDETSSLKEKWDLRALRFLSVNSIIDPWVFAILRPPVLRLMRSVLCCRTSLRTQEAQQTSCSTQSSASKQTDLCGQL

Structure (SMILES)	Ki [1] [nM]	Ki [2] [nM]	Ki [3] [nM]	Ki [4] [nM]	Ki [5] [nM]	Ki [6] [nM]	IC50 [7] [nM]	IC50 [8] [nM]	inhibition in vivo at 0.3 mg/kg [9] [%]
Cc1cc2c(CC(=O)O)cccc2n1C(=O)c1ccc(OCCc2ccccc2)cc1	1300	400	1900	2200					
Cc1cc2c(CC(=O)O)cccc2n1C(=O)c1ccc(OC[C@@H]2CN(C)c3ccccc3O2)cc1	100	6200	> 10000	1700	10	3.5	1.2		
Cc1cc2c(CC(=O)O)cccc2n1C(=O)c1ccc(OCc2ccccc2)cc1	330	1200	> 10000	1200	60			1300	
Cc1cc2c(CC(=O)O)cccc2n1C(=O)c1ccc(OCC2COc3ccccc3C2)cc1 (stereo unspecified)	280	> 10000	3500	> 10000	180	390			
Cc1cc2c(CC(=O)O)cccc2n1C(=O)c1ccc(OC[C@H]2COc3ccccc3O2)cc1	1300	2300	1300	> 10000	120	130	270		
CCCCOc1ccc(C(=O)n2c(C)cc3c(CC(=O)O)cccc32)cc1	2000	> 10000	> 10000	3300	10			300	
Cc1cc2c(CC(=O)O)cccc2n1C(=O)c1ccc(OCC2Cc3ccccc3O2)cc1 (stereo unspecified)	450	7800	> 10000	980	20	20	30		
Cc1cc2c(CC(=O)O)cccc2n1C(=O)c1ccc(OCC2CCc3ccccc3O2)cc1 (stereo unspecified)	90	3800	3100	> 10000	60	50	30		
Cc1cc2c(CC(=O)O)cccc2n1C(=O)c1ccc(OCCOc2ccccc2)cc1	540	5600	> 10000	> 10000	10	290	250	50	
Cc1cc2c(CC(=O)O)cccc2n1C(=O)c1ccc(OCC2Oc3ccccc3O2)cc1	250	780	> 10000	750	9.4	30	50		
Cc1cc2c(CC(=O)O)cccc2n1C(=O)c1ccc(OC[C@H]2CN(C)c3ccccc3O2)cc1	410	> 10000	> 10000	> 10000	230	170	10		
Cc1cc2c(CC(=O)O)cccc2n1C(=O)c1ccc(OC[C@@H]2CN(C)c3ccc(F)cc3O2)cc1	2100	> 10000	> 10000	1700	23	5.3	0.81		60
Cc1cc2c(CC(=O)O)cccc2n1C(=O)c1ccc(OCCCc2ccccc2)cc1		7700	2100	3300	170				
Cc1cc2c(CC(=O)O)cccc2n1C(=O)c1ccc(OC[C@@H]2COc3ccccc3O2)cc1	60	2000	> 10000	> 10000	10	10	30		
